Results: patent US11324795B2, “Composition comprising Hordeum vulgare extract for preventing or treating short stature” (UNIVERSITY-INDUSTRY COOPERATION GROUP OF KYUNG HEE …, priority 2013, dated 2022)

Test system: Sprague-Dawley female rats
Test: Evaluation of longitudinal bone growth effect, tetracycline staining method
Type: in vivo, rat
Description: As experimental animals, four-week-old Sprague-Dawley female rats (Samtako, Korea) weighing about 100 g were purchased and cared for so as to be acclimatized to the experimental environment while supplying sufficient feed and water. After about 1 week for the acclimatization period, animal testing was performed.
Two days after administration, 20 mg/kg of tetracycline hydrochloride (Sigma T7660) was injected intraperitoneally to all test groups. Two days thereafter, the rats were sacrificed via cervical dislocation, after which the left and right tibiae were removed, fixed in a fixing solution at 4° C. for 3 days, allowed to stand in 50 mM EDTA for 1 day, demineralized, and immersed in 30% sucrose overnight to protect freezing. The bone tissue thus dehydrated was frozen, and cut into 40 μm sections using a sliding microtome (HM440E, Zeiss, Germany), thus collecting sagittal sections of the proximal part of the tibia. To measure the bone growth, each sagittal section of the proximal part of the tibia, 40 μm thick, was placed on a slide glass, dried, and then observed under UV light at a wavelength of 400 nm using a fluorescence microscope (FIG. 1). Using image analysis software ImageJ (NIH, USA), the length between the fluorescence bands formed by the deposition of tetracycline in the growth plate and the bone tissue was measured, and Student's t-test and ANOVA test for comparison with a control group were performed in order to determine the growth effect.
The Hordeum vulgare extract prepared in Example 1 was administered after having been dissolved in a concentration of 30 mg/kg in type II distilled water in a volume of 1.0 ml per 100 g of rat weight, and as a control group, the same volume of type II distilled water was administered. The Hordeum vulgare extract was orally administered two times a day for a total of four days, starting from 2 days before the administration of tetracycline until the test termination day. […]

Positive control group: recombinant human growth hormone (rhGH; LG Lifescience, Eutropin®)
Longitudinal bone growth rate (%) (Table 1, extract 30 mg/kg (p.o.), positive control 20 μg/kg (s.c.)): 6.6%
longitudinal bone growth rate (proximal tibia, tetracycline band length, 4 days dosing, extract 30 mg/kg p.o. two times a day, rhGH 20 μg/kg s.c. once a day): 360.1±35.8 μm/day
longitudinal bone growth rate, % higher than normal control group (vs 337.8±30.0 μm/day in normal control group, extract 30 mg/kg p.o. (p<0.001), rhGH 20 μg/kg s.c. (not significant)): 6.6%
